Laboratory results reported in ChEMBL document CHEMBL1201862, “PubChem BioAssay data set” (2004).
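In this assay, cells in 96-well plates receive the compound at five concentrations for 48 hours. Endpoints are linearly interpolated between the surrounding concentrations. GI50 is the concentration that inhibits growth by half.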 Calls of active or inactive are those of the source. No stated cut-off is given here; in the data, active = GI50 up to about 1.1 µM and inactive = higher.

How the values were obtained:
Experiment in all cases: DTP human tumour cell line panel, 48 h
DMS-273 = tested on: DMS-273
HOP-18 = tested on: HOP-18
DMS-114 = tested on: DMS-114
BT-549 = tested on: BT-549
TK-10 = tested on: TK-10
CAKI-1 = tested on: CAKI-1
OVCAR-4 = tested on: OVCAR-4
UO-31 = tested on: UO-31
HOP-92 = tested on: HOP-92
786-0 = tested on: 786-0
SW-620 = tested on: SW-620
UACC-62 = tested on: UACC-62
SK-MEL-2 = tested on: SK-MEL-2
A549 = tested on: A549
SF-539 = tested on: SF-539
SF-268 = tested on: SF-268
HCC 2998 = tested on: HCC 2998
Hs-578T = tested on: Hs-578T
SNB-75 = tested on: SNB-75
SK-MEL-5 = tested on: SK-MEL-5
HT-29 = tested on: HT-29
HCT-116 = tested on: HCT-116
NCI-H226 = tested on: NCI-H226
DLD-1 = tested on: DLD-1
SNB-78 = tested on: SNB-78
LXFL 529 = tested on: LXFL 529
RXF 393 = tested on: RXF 393
Malme-3M = tested on: Malme-3M
NCI-H522 = tested on: NCI-H522
M19-MEL = tested on: M19-MEL
SK-OV-3 = tested on: SK-OV-3
MOLT-4 = tested on: MOLT-4
HOP-62 = tested on: HOP-62
RPMI-8226 = tested on: RPMI-8226
KM-20L2 = tested on: KM-20L2
HCT-15 = tested on: HCT-15
DU-145 = tested on: DU-145
OVCAR-3 = tested on: OVCAR-3
M14 = tested on: M14
SN12C = tested on: SN12C
OVCAR-5 = tested on: OVCAR-5
EKVX = tested on: EKVX
SNB-19 = tested on: SNB-19
SF-295 = tested on: SF-295
OVCAR-8 = tested on: OVCAR-8
COLO 205 = tested on: COLO 205
NCI-H460 = tested on: NCI-H460
U-251 = tested on: U-251
XF498 = tested on: XF498
KM12 = tested on: KM12
UACC-257 = tested on: UACC-257
SK-MEL-28 = tested on: SK-MEL-28
MDA-MB-231 = tested on: MDA-MB-231
T47D = tested on: T47D
SR = tested on: SR
ACHN = tested on: ACHN
CCRF-CEM = tested on: CCRF-CEM
HL-60 = tested on: HL-60
IGROV-1 = tested on: IGROV-1
K562 = tested on: K562
NCI-H23 = tested on: NCI-H23
RXF 631 = tested on: RXF 631
LOX IMVI = tested on: LOX IMVI

Measured: GI50

COC1C(O)CC(OC2CC(OC3CC(O[C@@H]4C(=O)c5c(cc6cc(OC7CC(OC8CC(O)C(O)C(C)O8)C(O)C(C)O7)c(C)c(O)c6c5O)C[C@H]4[C@H](OC)C(=O)[C@@H](O)[C@@H](C)O)OC(C)C3O)OC(C)C2O)OC1C (some centres undefined)
673 nM: HCT-15
active: DMS-273 < 16.8 nM | HOP-18 21.1 nM | DMS-114 27.2 nM | BT-549 < 10 nM | TK-10 43.1 nM | CAKI-1 356 nM | OVCAR-4 67.1 nM | UO-31 31.8 nM | HOP-92 < 14 nM | 786-0 < 19.4 nM | SW-620 < 22.8 nM | UACC-62 < 13.1 nM | SK-MEL-2 < 12.9 nM | A549 < 15.1 nM | SF-539 < 11.9 nM | SF-268 14.1 nM | HCC 2998 13.6 nM | Hs-578T < 10 nM | SNB-75 < 33.1 nM | SK-MEL-5 < 13.8 nM | HT-29 < 16.8 nM | HCT-116 < 10 nM | NCI-H226 < 104 nM | DLD-1 177 nM | SNB-78 < 10 nM | LXFL 529 12.9 nM | RXF 393 < 10 nM | Malme-3M < 12.6 nM | NCI-H522 < 11.8 nM | M19-MEL 10.9 nM | SK-OV-3 < 23.6 nM | MOLT-4 < 15.9 nM | HOP-62 < 12 nM | RPMI-8226 < 10 nM | KM-20L2 22.3 nM | DU-145 < 10 nM | OVCAR-3 < 27.1 nM | M14 26.7 nM | SN12C < 19.7 nM | OVCAR-5 < 17.5 nM | EKVX 34 nM | SNB-19 < 19.4 nM | SF-295 < 17.3 nM | OVCAR-8 < 19.3 nM | COLO 205 18.9 nM | NCI-H460 < 10 nM | U-251 11.2 nM | XF498 < 10 nM | KM12 16.8 nM | UACC-257 < 16.6 nM | SK-MEL-28 < 12.6 nM | MDA-MB-231 57.4 nM | T47D < 10 nM | SR < 10 nM | ACHN < 19.1 nM

COC(=O)C(Cc1cc(OC)c(OC)c(OC)c1)C(=O)OC
> 320000 nM: HCT-15
inactive: DMS-273 > 320000 nM | DMS-114 > 320000 nM | TK-10 > 320000 nM | CAKI-1 > 320000 nM | HOP-92 > 320000 nM | 786-0 > 320000 nM | SW-620 > 320000 nM | UACC-62 > 320000 nM | SK-MEL-2 > 320000 nM | A549 > 320000 nM | SF-268 > 320000 nM | HCC 2998 > 320000 nM | SK-MEL-5 > 320000 nM | HT-29 > 320000 nM | DLD-1 > 320000 nM | LXFL 529 > 320000 nM | RXF 393 > 320000 nM | Malme-3M > 320000 nM | CCRF-CEM > 320000 nM | NCI-H522 > 320000 nM | M19-MEL > 320000 nM | SK-OV-3 > 320000 nM | MOLT-4 > 320000 nM | HOP-62 > 320000 nM | RPMI-8226 > 320000 nM | KM-20L2 > 320000 nM | OVCAR-3 > 320000 nM | HL-60 > 320000 nM | SN12C > 320000 nM | OVCAR-5 > 320000 nM | EKVX > 320000 nM | SF-295 > 320000 nM | IGROV-1 > 320000 nM | OVCAR-8 > 320000 nM | K562 > 320000 nM | COLO 205 > 320000 nM | NCI-H460 > 320000 nM | U-251 > 320000 nM | XF498 > 320000 nM | KM12 > 320000 nM | UACC-257 > 320000 nM | SK-MEL-28 > 320000 nM | SR > 320000 nM | NCI-H23 > 320000 nM | RXF 631 > 320000 nM | LOX IMVI > 320000 nM | ACHN > 320000 nM
